{"source": "patent US9982017B2", "about": "“Synthetic apelin mimetics for the treatment of heart failure” (priority 2012, dated 2018)", "note": "Where a SMILES comes first, the peptide text is derived from it. Bridges are numbered along the chain shown (N, C = ends). [ ]: non-standard residue; d: D form. The star is where a group is joined. Myristoyl = CCCCCCCCCCCCCC(=O)*; pGlu = O=C1CC[C@@H](C(=O)O)N1; NHPhenethyl = c1ccc(CCN*)cc1; Lauroyl = CCCCCCCCCCCC(=O)*; hCys = N[C@@H](CCS)C(=O)O; Nle = CCCC[C@H](N)C(=O)O; AEEA = NCCOCCOCC(=O)O; Aib = CC(C)(N)C(=O)O"}
{"assay": "in vitro", "details": "rat, not told, Surrogate activity-based Plasma stability t½", "units": {"half-life": "h"}}
{"smiles": "CCCCCCCCCCCCCC(=O)NCCOCCOCC(=O)NCCOCCOCC(=O)NCCOCCOCC(=O)NCCOCCOCC(=O)N[C@@H](CCC(N)=O)C(=O)N[C@@H](CCCNC(=N)N)C(=O)N1CCC[C@H]1C(=O)N[C@@H](CCCNC(=N)N)C(=O)N[C@@H](CC(C)C)C(=O)N[C@H]1CSSC[C@@H](C(=O)N[C@H](Cc2ccccc2)C(=O)O)NC(=O)[C@H](CCCC)NC(=O)[C@@H]2CCCN2C(=O)CNC(=O)[C@H](CCCCN)NC(=O)[C@H](Cc2c[nH]cn2)NC1=O", "note": "[Example 60, Myristoyl-O2Oc-O2Oc-O2Oc-O2Oc-Q-R-P-R-L-C-H-K-G-P-Nle-C-f-OH] ({Myristoyl-AEEA-AEEA-AEEA-AEEA}-QRPRLCHKGP[Nle]C[dF]-OH; disulfide 6-12)", "half-life": "> 16.7"}
{"smiles": "CCCCCCCCCCCCCC(=O)NCCCC[C@@H]1NC(=O)[C@H](Cc2c[nH]cn2)NC(=O)[C@@H](NC(=O)[C@H](CC(C)C)NC(=O)[C@H](CCCNC(=N)N)NC(=O)[C@@H]2CCCN2C(=O)[C@H](CCCNC(=N)N)NC(=O)[C@@H]2CCC(=O)N2)CSSC[C@@H](C(=O)N[C@@H](Cc2ccccc2)C(=O)O)NC(=O)[C@H](CCCC)NC(=O)[C@@H]2CCCN2C(=O)CNC1=O", "note": "[Example 61, pE-R-P-R-L-C-H-K(Myristoyl)-G-P-Nle-C-F-OH] ([pGlu]RPRLCHK(Myristoyl)GP[Nle]CF-OH; disulfide 6-12)", "half-life": 4.33}
{"smiles": "CCCC[C@@H]1NC(=O)[C@@H]2CCCN2C(=O)CNC(=O)[C@H](CCCCN)NC(=O)[C@H](Cc2c[nH]cn2)NC(=O)[C@@H](NC(=O)[C@H](CC(C)C)NC(=O)[C@H](CCCNC(=N)N)NC(=O)[C@H]2CCCN2C(=O)[C@H](CCCNC(=N)N)NC(=O)[C@@H]2CCC(=O)N2)CSSC[C@@H](C(=O)N[C@@H](Cc2ccccc2)C(=O)O)NC1=O", "note": "[Example 33, pE-R-p-R-L-C-H-K-G-P-Nle-C-F-OH] ([pGlu]R[dP]RLCHKGP[Nle]CF-OH; disulfide 6-12)", "half-life": "> 16.7"}
{"smiles": "CCCC[C@@H]1NC(=O)[C@@H]2CCCN2C(=O)CNC(=O)[C@H](CCCCN)NC(=O)[C@H](Cc2c[nH]cn2)NC(=O)[C@@H](NC(=O)[C@H](CC(C)C)NC(=O)[C@H](CCCNC(=N)N)NC(=O)[C@@H]2CCCN2C(=O)[C@H](CCCNC(=N)N)NC(=O)[C@@H]2CCC(=O)N2)CCSSCC[C@@H](C(=O)N[C@@H](Cc2ccccc2)C(=O)O)NC1=O", "note": "[Example 52, pE-R-P-R-L-hC-H-K-G-P-Nle-hC-F-OH] ([pGlu]RPRL[hCys]HKGP[Nle][hCys]F-OH; disulfide 6-12)", "half-life": 13}
{"smiles": "CCCCCCCCCCCC(=O)NCCOCCOCC(=O)N[C@@H](CCC(N)=O)C(=O)N[C@@H](CCCNC(=N)N)C(=O)N1CCC[C@H]1C(=O)N[C@@H](CCCNC(=N)N)C(=O)N[C@@H](CC(C)C)C(=O)N[C@H]1CSSC[C@@H](C(=O)N[C@@H](Cc2ccccc2)C(=O)O)NC(=O)[C@H](CCCC)NC(=O)[C@@H]2CCCN2C(=O)CNC(=O)[C@H](CCCCN)NC(=O)[C@H](Cc2c[nH]cn2)NC1=O", "note": "[Example 25, Lauroyl-O2Oc-Q-R-P-R-L-C-H-K-G-P-Nle-C-F-OH] ({Lauroyl-AEEA}-QRPRLCHKGP[Nle]CF-OH; disulfide 6-12)", "half-life": "> 16.7"}
{"smiles": "CCCC[C@@H]1NC(=O)[C@@H]2CCCN2C(=O)CNC(=O)[C@H](CCCCN)NC(=O)[C@H](Cc2cnc[nH]2)NC(=O)[C@@H](NC(=O)[C@H](CC(C)C)NC(=O)[C@H](CCCNC(=N)N)NC(=O)[C@@H]2CCCN2C(=O)[C@H](CCCNC(=N)N)NC(=O)[C@@H]2CCC(=O)N2)CSC/C(=N/OCC(=O)NCCNC(=O)COCCOCCNC(=O)CCC(NC(=O)CCCCCCCCCCCCCCCCC(=O)O)C(=O)O)CSC[C@@H](C(=O)N[C@@H](Cc2ccccc2)C(=O)O)NC1=O", "note": "(some centres unmarked) [Example 66]", "half-life": 9.93}
{"smiles": "CCCC[C@@H]1NC(=O)[C@@H]2CCCN2C(=O)CNC(=O)[C@H](CCCCN)NC(=O)[C@H](Cc2c[nH]cn2)NC(=O)[C@@H](NC(=O)[C@H](CCCCN)NC(=O)[C@H](CCCNC(=N)N)NC(=O)[C@@H]2CCCN2C(=O)[C@H](CCCNC(=N)N)NC(=O)[C@@H]2CCC(=O)N2)CSSC[C@@H](C(=O)N[C@@H](Cc2ccccc2)C(=O)O)NC1=O", "note": "[Example 37, pE-R-P-R-K-C-H-K-G-P-Nle-C-F-OH] ([pGlu]RPRKCHKGP[Nle]CF-OH; disulfide 6-12)", "half-life": 2.74}
{"smiles": "CCCCCCCCCCCC(=O)NCCCC[C@@H]1NC(=O)[C@@H](NC(=O)[C@H](CC(C)C)NC(=O)[C@H](CCCNC(=N)N)NC(=O)[C@@H]2CCCN2C(=O)[C@H](CCCNC(=N)N)NC(=O)[C@@H]2CCC(=O)N2)CSSC[C@@H](C(=O)N[C@@H](Cc2ccccc2)C(=O)O)NC(=O)[C@H](CCCC)NC(=O)[C@@H]2CCCN2C(=O)CNC(=O)[C@H](CCCCN)NC1=O", "note": "[Example 27, pE-R-P-R-L-C-K(Lauroyl)-K-G-P-Nle-C-F-OH] ([pGlu]RPRLCK(Lauroyl)KGP[Nle]CF-OH; disulfide 6-12)", "half-life": "> 16.7"}
{"smiles": "CCCC[C@@H]1NC(=O)[C@@H]2CCCN2C(=O)CNC(=O)[C@H](CCCCN)NC(=O)[C@H](Cc2c[nH]cn2)NC(=O)[C@@H](NC(=O)[C@H](CC(C)C)NC(=O)[C@H](CCCNC(=N)N)NC(=O)[C@@H]2CCCN2C(=O)[C@H](CCCNC(=N)N)NC(=O)[C@@H]2CCC(=O)N2)CSSC[C@H](C(=O)N[C@@H](Cc2ccccc2)C(=O)O)NC1=O", "note": "[Example 56, pE-R-P-R-L-C-H-K-G-P-Nle-c-F-OH] ([pGlu]RPRLCHKGP[Nle][dC]F-OH; disulfide 6-12)", "half-life": "> 16.7"}
{"smiles": "CCCC[C@@H]1NC(=O)[C@@H]2CCCN2C(=O)[C@H](CC(=O)O)NC(=O)[C@H](CCCCN)NC(=O)[C@H](Cc2c[nH]cn2)NC(=O)[C@@H](NC(=O)[C@H](CC(C)C)NC(=O)[C@H](CCCNC(=N)N)NC(=O)[C@@H]2CCCN2C(=O)[C@H](CCCNC(=N)N)NC(=O)[C@@H]2CCC(=O)N2)CSSC[C@@H](C(=O)N[C@@H](Cc2ccccc2)C(=O)O)NC1=O", "note": "[Example 39, pE-R-P-R-L-C-H-K-D-P-Nle-C-F-OH] ([pGlu]RPRLCHKDP[Nle]CF-OH; disulfide 6-12)", "half-life": 10.9}
{"smiles": "CCCC[C@@H]1NC(=O)[C@@H]2CCCN2C(=O)CNC(=O)[C@H](Cc2ccccc2)NC(=O)[C@H](Cc2c[nH]cn2)NC(=O)[C@@H](NC(=O)[C@H](CC(C)C)NC(=O)[C@H](CCCNC(=N)N)NC(=O)[C@@H]2CCCN2C(=O)[C@H](CCCNC(=N)N)NC(=O)[C@@H]2CCC(=O)N2)CCCCNC(=O)CC[C@@H](C(=O)NCCc2ccccc2)NC1=O", "note": "[Example 2, pE-R-P-R-L-K-H-F-G-P-Nle-E-Phenethylamine] ([pGlu]RPRLKHFGP[Nle]E-NHPhenethyl; lactam 6-12)", "half-life": 0.452}
{"smiles": "CCCC[C@@H]1NC(=O)[C@@H]2CCCN2C(=O)[C@H](CC(C)C)NC(=O)[C@H](CCCCN)NC(=O)[C@H](Cc2c[nH]cn2)NC(=O)[C@@H](NC(=O)[C@H](CC(C)C)NC(=O)[C@H](CCCNC(=N)N)NC(=O)[C@@H]2CCCN2C(=O)[C@H](CCCNC(=N)N)NC(=O)[C@@H]2CCC(=O)N2)CSSC[C@@H](C(=O)N[C@@H](Cc2ccccc2)C(=O)O)NC1=O", "note": "[Example 44, pE-R-P-R-L-C-H-K-L-P-Nle-C-F-OH] ([pGlu]RPRLCHKLP[Nle]CF-OH; disulfide 6-12)", "half-life": 14.3}
{"smiles": "CCCC[C@@H]1NC(=O)[C@@H]2CCCN2C(=O)CNC(=O)[C@H](CCCCN)NC(=O)[C@H](Cc2c[nH]cn2)NC(=O)[C@@H](NC(=O)[C@H](CC(C)C)NC(=O)[C@H](CCCNC(=N)N)NC(=O)[C@@H]2CCCN2C(=O)[C@H](CCCNC(=N)N)NC(=O)[C@@H]2CCC(=O)N2)CSSC[C@@H](C(=O)O)NC1=O", "note": "[Example 50, pE-R-P-R-L-C-H-K-G-P-Nle-C-OH] ([pGlu]RPRLCHKGP[Nle]C-OH; disulfide 6-12)", "half-life": "> 16.7"}
{"smiles": "CCCC[C@@H]1NC(=O)[C@@H]2CCCN2C(=O)CNC(=O)[C@H](CCCCN)NC(=O)[C@H](Cc2c[nH]cn2)NC(=O)[C@@H](NC(=O)[C@H](CC(C)C)NC(=O)[C@H](CCCNC(=N)N)NC(=O)[C@H](CC(=O)O)NC(=O)[C@H](CCCNC(=N)N)NC(=O)[C@@H]2CCC(=O)N2)CSSC[C@@H](C(=O)N[C@@H](Cc2ccccc2)C(=O)O)NC1=O", "note": "[Example 35, pE-R-D-R-L-C-H-K-G-P-Nle-C-F-OH] ([pGlu]RDRLCHKGP[Nle]CF-OH; disulfide 6-12)", "half-life": "> 16.7"}
{"smiles": "CCCC[C@@H]1NC(=O)[C@@H]2CCCN2C(=O)CNC(=O)[C@H](CCCCN)NC(=O)C(C)(C)NC(=O)[C@@H](NC(=O)[C@H](CC(C)C)NC(=O)[C@H](CCCNC(=N)N)NC(=O)[C@@H]2CCCN2C(=O)[C@H](CCCNC(=N)N)NC(=O)[C@@H]2CCC(=O)N2)CSSC[C@@H](C(=O)N[C@H](Cc2ccccc2)C(=O)O)NC1=O", "note": "[Example 10, pE-R-P-R-L-C-Aib-K-G-P-Nle-C-f-OH] ([pGlu]RPRLC[Aib]KGP[Nle]C[dF]-OH; disulfide 6-12)", "half-life": "> 16.7"}
{"smiles": "CCCC[C@@H]1NC(=O)[C@@H]2CCCN2C(=O)CNC(=O)[C@H](CCCCN)NC(=O)[C@H](Cc2c[nH]cn2)NC(=O)[C@@H](NC(=O)[C@H](CC(C)C)NC(=O)[C@H](CCCNC(=N)N)NC(=O)[C@@H]2CCCN2C(=O)[C@H](CCCNC(=N)N)NC(=O)[C@@H]2CCC(=O)N2)CSSC[C@@H](C(=O)N[C@@H](Cc2ccccc2)C(N)=O)NC1=O", "note": "[Example 62, pE-R-P-R-L-C-H-K-G-P-Nle-C-F-NH2] ([pGlu]RPRLCHKGP[Nle]CF-NH2; disulfide 6-12)", "half-life": "> 16.7"}
{"smiles": "CCCC[C@@H]1NC(=O)[C@@H]2CCCN2C(=O)CNC(=O)[C@H](CCCCN)NC(=O)[C@H](Cc2c[nH]cn2)NC(=O)[C@@H](NC(=O)[C@H](CC(C)C)NC(=O)[C@H](CCC(=O)O)NC(=O)[C@@H]2CCCN2C(=O)[C@H](CCCNC(=N)N)NC(=O)[C@@H]2CCC(=O)N2)CSSC[C@@H](C(=O)N[C@@H](Cc2ccccc2)C(=O)O)NC1=O", "note": "[Example 40, pE-R-P-E-L-C-H-K-G-P-Nle-C-F-OH] ([pGlu]RPELCHKGP[Nle]CF-OH; disulfide 6-12)", "half-life": "> 16.7"}
